According to ChEMBL document CHEMBL1149515, “Small molecule inhibitors of IgE synthesis” (Bioorg Med Chem Lett, 2006):
Activity calls are given as the source filed them. The rule behind the calls is not given here.

Assays:
PBL = experiment: Inhibition of IL4-induced IgE synthesis in human peripheral blood lymphocytes; assay type: functional, cell-based
[1] = Stability in human liver microsome at 1uM; assay type: ADME; details: liver microsomes
CYP1A1 = experiment: Half life assessed as CYP1A1 mediated metabolism at 1 uM; assay type: ADME
[2] = Lipophilicity, LogD of the compound; assay type: physicochemical; details: octanol/water
Salmonella typhi = experiment: Mutagenic activity against […] by Ames assay; assay type: functional, organism-based; details: Salmonella enterica subsp. enterica […]
CYP1A2 = experiment: Half life assessed as CYP1A2 mediated metabolism at 1 uM; assay type: ADME

CC(C)(C)NC(=O)c1cn2ccnc2c(N2CCN(c3ncccn3)CC2)n1 showed an IC50 (PBL) of 39 nM, a half-life at 1 µM [1] of 3 min and a half-life at 1 µM (CYP1A1) of 13 min. The logD [2] was 3.7 and the Activity (Salmonella typhi) was “inactive”.
For c1cnc(N2CCN(c3nccn4ccnc34)CC2)nc1, the IC50 (PBL) was 18 nM, the half-life at 1 µM [1] was 45 min and the half-life at 1 µM (CYP1A1) was < 2 min. For the same compound, the half-life at 1 µM (CYP1A2) was 2 min, the logD [2] was 2 and the Activity (Salmonella typhi) was “Active”.
In the case of CCN1CCC(NC(=O)c2nc(N3CCN(c4ncccn4)CC3)c3nccn3c2C)CC1, the IC50 (PBL) is reported as 49 nM, the half-life at 1 µM [1] is reported as > 120 min and the half-life at 1 µM (CYP1A1) is reported as > 120 min. For the same compound, the logD [2] was 1.2.
For CN1CCC(NC(=O)c2cn3ccnc3c(N3CCN(c4ccccn4)CC3)n2)CC1, the IC50 (PBL) was 37 nM, the half-life at 1 µM [1] was > 120 min and the half-life at 1 µM (CYP1A1) was 45 min. It also gave a half-life at 1 µM (CYP1A2) of 95 min.
In the case of O=C(NC1CCNC1)c1cn2ccnc2c(N2CCN(c3ccccn3)CC2)n1 (stereo not drawn), the IC50 (PBL) is reported as 118 nM, the half-life at 1 µM [1] is reported as > 120 min and the half-life at 1 µM (CYP1A2) is reported as > 120 min.
For c1cn2ccnc2c(N2CCN(C3CCCC3)CC2)n1, the IC50 (PBL) was > 10000 nM, the half-life at 1 µM [1] was > 120 min and the half-life at 1 µM (CYP1A2) was > 120 min.
With O=C(CCc1cnc2c(N3CCN(c4ncccn4)CC3)nccn12)N1CCOCC1 the IC50 (PBL) was > 10000 nM, the half-life at 1 µM (CYP1A1) was > 120 min and the half-life at 1 µM (CYP1A2) was > 120 min.
In the case of c1cn2ccnc2c(-c2ccc(N3CCCC3)nc2)n1, the IC50 (PBL) is reported as 55 nM, the half-life at 1 µM [1] is reported as 14 min and the half-life at 1 µM (CYP1A1) is reported as < 1 min. For the same compound, the half-life at 1 µM (CYP1A2) was < 1 min and the logD [2] was 2.5.
